Experimental data reported in patent US20220289728A1, “MODULATORS OF TREX1” (Constellation Pharmaceuticals, Inc., priority 2019, published 2022).

Legend:
full length human TREX1 = target: T1, full length human TREX1 (Homo sapiens, UniProt Q9NSU2); assay: TREX1 Biochemical Assay (fluorescence, dsDNA substrate degradation); settings: 150 pM TREX1, 60 nM dsDNA substrate, 25 minutes at room temperature
T1 construct: N-terminally His-Tev tagged full length human TREX1; His-TEV (His tag with TEV site) (N); made in house; host or cells: E. coli
T1 sequence (Q9NSU2 1-314): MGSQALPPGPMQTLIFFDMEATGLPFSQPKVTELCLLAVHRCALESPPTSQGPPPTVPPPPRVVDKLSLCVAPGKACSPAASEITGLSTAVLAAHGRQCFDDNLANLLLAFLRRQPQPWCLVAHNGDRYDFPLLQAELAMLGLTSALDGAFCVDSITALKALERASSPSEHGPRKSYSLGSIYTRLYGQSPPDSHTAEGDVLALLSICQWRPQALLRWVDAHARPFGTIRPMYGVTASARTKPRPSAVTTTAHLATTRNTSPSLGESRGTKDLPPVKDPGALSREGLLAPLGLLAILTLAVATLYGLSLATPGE
Summary of the method: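 N-terminally His-Tev-tagged TREX1 was expressed in E. coli; 150 pM enzyme was run with 60 nM TEX615/quencher-labelled dsDNA at pH 7.4 in 1.0% DMSO for 25 min at room temperature, then quenched with EDTA. Fluorescence at 615 nm (570 nm excitation) was normalised to pre-quenched and no-inhibitor controls, and IC50 came from four-parameter fits.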

[1] = target: T2, human TREX2 (residues M44-A279) (Homo sapiens, UniProt Q9BQ50); assay: TREX2 Biochemical Assay (fluorescence, dsDNA substrate degradation); settings: 2.5 nM TREX2, 60 nM dsDNA substrate, 25 minutes at room temperature
T2 construct: human TREX2 (residues M44-A279, expressed in E. coli); His-TEV (His tag with TEV site) (N); made in house; host or cells: E. coli
T2 sequence (Q9BQ50 44-279 isoform Q9BQ50-1): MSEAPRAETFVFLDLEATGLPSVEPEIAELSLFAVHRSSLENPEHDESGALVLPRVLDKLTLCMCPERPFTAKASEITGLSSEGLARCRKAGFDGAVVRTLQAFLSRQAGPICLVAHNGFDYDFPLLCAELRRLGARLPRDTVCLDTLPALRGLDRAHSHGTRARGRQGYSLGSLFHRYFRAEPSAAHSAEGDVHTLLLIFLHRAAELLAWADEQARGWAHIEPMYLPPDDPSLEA
Summary of the method: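 Final conditions: 2.5 nM His-Tev-tagged TREX2 (E. coli-expressed), 60 nM fluorophore/quencher-labelled dsDNA, 50 mM Tris pH 7.4, 150 mM NaCl, 100 mM MgCl2, 1% DMSO; 10-point compound dose-response. Incubated 25 min at room temperature, then EDTA-quenched; fluorescence read at ex 570/em 615 nm. IC50 from four-parameter fit against pre-quenched and no-inhibitor controls.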

HCT116 dual cells = assay: HCT116 Cell Assay (Lucia luciferase reporter of Type I interferon induction); format: cell-based, human; settings: pBR322/BstNI DNA transfection, Lucia luciferase at 48 h, relative to 10 uM compound 39
Summary of the method: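 Cells were pretreated with compound for 4 h (≤0.1% DMSO), then transfected with pBR322/BstNI DNA (1.25 ug/mL; 100 ng/well) using Lipofectamine LTX. Secreted Lucia luciferase in the medium was read after 48 h at 37 °C. EC50 came from four-parameter fits normalised to no-inhibitor and 10 uM reference-inhibitor controls.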

[2] = Homo sapiens, HCT-116, 4 h pre-treatment

Q: CN(c1nc(C(=O)Nc2cnoc2)c(O)c(=O)n1C)C(c1cccc(C#N)c1)c1ccccc1Cl (single isomer, unassigned) [Example 95] was tested. Which IC50 (full length human TREX1) did it give?
A: < 100 nM

Q: And the IC50 [1]?
A: < 1000 nM

Q: And the EC50 (HCT116 dual cells; [2])?
A: < 1000 nM

Q: With CN(Cc1cccc(C(F)(F)F)c1)c1nc(C(=O)Nc2cnoc2)c(O)c(=O)n1C [Example 10] as the compound, how does the IC50 (full length human TREX1) read?
A: < 100 nM

Q: What about the IC50 [1] of the same compound?
A: 1000 to 10000 nM

Q: What about the EC50 (HCT116 dual cells; [2]) of the same compound?
A: 10000 to 100000 nM

Q: Which IC50 (full length human TREX1) does the source give for CN(c1nc(C(=O)Nc2cnoc2)c(O)c(=O)n1C)C(c1ccccc1)C1CCOCC1 (single isomer, unassigned) [Example 46] here?
A: < 100 nM

Q: What about the IC50 [1] of the same compound?
A: 1000 to 10000 nM

Q: What about the EC50 (HCT116 dual cells; 4 h pre-treatment) of the same compound?
A: 1000 to 10000 nM

Q: For CN(Cc1cccc(-c2cnn(C)c2)c1)c1nc(C(=O)Nc2cnoc2)c(O)c(=O)n1C [Example 19], which IC50 (full length human TREX1) is on record?
A: < 100 nM

Q: What about the IC50 [1] of the same compound?
A: 1000 to 10000 nM

Q: What about the EC50 (HCT116 dual cells; [2]) of the same compound?
A: 10000 to 100000 nM

Q: CCN(c1nc(C(=O)Nc2cnoc2)c(O)c(=O)n1C)C(c1ccccc1)c1ccccc1Cl (single isomer, unassigned) [Example 91] was tested. Which IC50 (full length human TREX1) did it give?
A: < 100 nM

Q: What about the IC50 [1] of the same compound?
A: < 1000 nM

Q: And the EC50 (HCT116 dual cells; [2])?
A: 1000 to 10000 nM

Q: Which IC50 (full length human TREX1) does the source give for CN(c1nc(C(=O)Nc2cnoc2)c(O)c(=O)n1C)C(c1ccccc1)c1ccccc1C(F)(F)F (single isomer, unassigned) [Example 84] here?
A: < 100 nM

Q: What about the IC50 [1] of the same compound?
A: < 1000 nM

Q: What about the EC50 (HCT116 dual cells; 4 h pre-treatment) of the same compound?
A: < 1000 nM

Q: For CN(c1nc(C(=O)Nc2cnoc2)c(O)c(=O)n1C)C(c1ccccc1)c1ccccc1C#N (single isomer, unassigned) [Example 85], which IC50 (full length human TREX1) is on record?
A: < 100 nM

Q: What about the IC50 [1] of the same compound?
A: < 1000 nM

Q: And the EC50 (HCT116 dual cells; [2])?
A: < 1000 nM

Q: What does the source list for C[C@@H](c1ccccc1)N(C)c1nc(C(=O)Nc2cnoc2)c(O)c(=O)n1C [Example 28]?
A: IC50 (full length human TREX1): < 100 nM; IC50 [1]: 1000 to 10000 nM; EC50 (HCT116 dual cells; [2]): 1000 to 10000 nM

Q: What does the source list for CN(c1nc(C(=O)Nc2cnoc2)c(O)c(=O)n1C)C(c1ccccc1)c1ncccc1Cl (single isomer, unassigned) [Example 54]?
A: IC50 (full length human TREX1): < 100 nM; IC50 [1]: < 1000 nM; EC50 (HCT116 dual cells; 4 h pre-treatment): < 1000 nM

Q: Which results are given for CN(c1nc(C(=O)Nc2cnoc2)c(O)c(=O)n1C)C(c1ccccc1)c1ccccc1 [Example 30]?
A: IC50 (full length human TREX1): < 100 nM; IC50 [1]: < 1000 nM; EC50 (HCT116 dual cells; [2]): < 1000 nM
